“And” between values parts separate entries of the source, which are not always exact repeats. Equal values may be shown once.
How the values were obtained:
Format in all cases: cell-based, mouse
[1] = test system: activated Akt; experiment: Western immunoblot for activated (phospho-Ser473) Akt in muscle cells; conditions: for FOLD AKT ACTIVATION (OVER CONTROL): cells treated 30 minutes at 37° C
Method: (§1) The levels of Glut-4, activated AMPK and activated Akt were measured in mouse muscle cells C2C12 (from ATTC) and in primary culture of human skeletal muscle cells (Clonetics, Inc.) using Western immunoblotting. C2C12 cells were plated at 1.5×1-exp5 cells per mL/well (12-well plate) in standard cell culture medium (DMEM supplemented with 10% fetal bovine serum (FBS), 25 mM glucose, 20 mM Hepes, 4 mM glutamine and 2 mM sodium pyruvate. 48 hrs after the plating, medium was changed to differentiation medium (DMEM supplemented with 5 mM of glucose and 0.5% of FBS) for next 3-4 days to stimulate the formation of myotubes. Three hours before the treatment with selected agents, cells were washed with PBS and transferred to PBS supplemented with 5 mM of glucose.
(§2) Human skeletal muscle cells (HSKM) were cultured in SKBM-2 mediums provided by Clonetics. 48 hrs after cell plating, medium was changed to SKBM medium to stimulate differentiation of the cells to myotubes. When differentiated, the myotubes were transferred to PBS supplemented with 5 mM glucose for three hrs before the treatment.
(§3) Analysis of C2C12 cells for the level of activated AMPK, Akt and the level of GLUT-4 was performed in the same experimental system. The cells were treated for 30 minutes at 37° C. […] Subsequently, 20 μg per sample of sample protein was used for Western analysis using NuPage 10% Bis/Tris gels (Invitrogen). After exposure of membranes to primary and secondary antibodies AMPK, AKT or Glut-4 was detected using ECL-Plus (Amersham) following producer's instruction. Chemilumiscent signals were detected by using ChemiDoc system from Biorad. Intensity of detected signals were analyzed and measured using Quantity One software (Biorad). Alternatively, the level of phosphorylated AMPK was detected using ECL kit from Amersham and short exposure to Kodak films.
(§4) Experimental setup: Cell Culture was followed by treatment with selected contemplated compounds, which was followed by cell lysis and western blot analysis for AMPK, Akt, GLUT4, total AMPK, and total Akt. Signals were acquired accordingly.

[2] = test system: activated AMPK; experiment: Western immunoblot for activated (phospho-Thr172) AMPK in muscle cells; conditions: for FOLD AMPK ACTIVATION (OVER CONTROL): cells treated 30 minutes at 37° C
Method: as §1, §2, §3, §4

[3] = test system: GLUT-4; experiment: Western immunoblot for GLUT-4 protein level in C2C12 cells; conditions: 2000 microM
Method: as §1
Analysis of C2C12 cells for the level of activated AMPK, Akt and the level of GLUT-4 was performed in the same experimental system. The cells were treated for 30 minutes at 37° C. After the treatment, the cells were washed with ice-cold PBS and lysed with 80 μl of lysis buffer/well (M-PER buffer from Pierce supplemented with protease and phosphatase inhibitor mix (Calbiochem) for 10 minutes on ice. Next, the plates were transferred to −20° C. to improve the lysis of the cells. Next cells were sonicated for 5 minutes and lysate was transferred to Eppendorf tubes and centrifuged at 14,000 rpm for 10 minutes. Supernatants were collected in fresh Eppendorf tubes and kept on ice to measure the amount of total proteins. 3 μl of each lysate was used to measure the protein concentration using standard Bradford method (Biorad). Subsequently, 20 μg per sample of sample protein was used for Western analysis using NuPage 10% Bis/Tris gels (Invitrogen). After exposure of membranes to primary and secondary antibodies AMPK, AKT or Glut-4 was detected using ECL-Plus (Amersham) following producer's instruction. Chemilumiscent signals were detected by using ChemiDoc system from Biorad. Intensity of detected signals were analyzed and measured using Quantity One software (Biorad). Alternatively, the level of phosphorylated AMPK was detected using ECL kit from Amersham and short exposure to Kodak films.
Experimental setup: Cell Culture was followed by treatment with selected contemplated compounds, which was followed by cell lysis and western blot analysis for AMPK, Akt, GLUT4, total AMPK, and total Akt. Signals were acquired accordingly. Primary antibodies used in these studies are the following: Anti-phospho-AMPK (Thr172), mouse, rabbit IgG, from Cell Signaling, #2531; Anti-phospho-Akt (Ser473), mouse, rabbit IgG, Cell Signaling, #9271; Anti-Glut-4, mouse, rabbit IgG, Calbiochem, #400064; Anti-AMPK (total), mouse, rabbit IgG, Cell Signaling, #2532; Anti-Akt (total), mouse, rabbit IgG, Cell Signaling, #9272.
The effects of kinetin, N^2-Acetyl-Guanosine and N^2-Acetyl-Guanine on GLUT-4 protein level in C2C12 cells were investigated following the same experimental design as described for AMPK and AKT. Anti-Glut-4 antibody used in this study was from Calbiochem. […] Table 3 refers to multiple independent experiments where multiple identical concentrations for the same reagents are indicated.

NC(=O)c1ncn([C@@H]2O[C@H](CO)[C@@H](O)[C@H]2O)c1N [AICAR, reference compound]
FOLD AKT ACTIVATION (OVER CONTROL) ([1]; 50.0 microM): 2.20 fold | FOLD AKT ACTIVATION (OVER CONTROL) ([1]; 500.0 microM): 5.45 fold

Nc1ncnc2c1ncn2[C@@H]1O[C@H](CO)[C@@H](O)[C@H]1O [Adenosine]
FOLD AMPK ACTIVATION (OVER CONTROL) ([2]; 2.5 microM): 1.87 fold | FOLD AMPK ACTIVATION (OVER CONTROL) ([2]; 5.0 microM): 1.64 fold | FOLD AMPK ACTIVATION (OVER CONTROL) ([2]; 12.5 microM): 1.83 fold

c1ccc(CNc2ncnc3nc[nH]c23)cc1 [Benzyl-Adenine]
FOLD AMPK ACTIVATION (OVER CONTROL) ([2]; 0.5 microM): 2.18 fold | FOLD AMPK ACTIVATION (OVER CONTROL) ([2]; 5.0 microM): 2.70 fold | FOLD AMPK ACTIVATION (OVER CONTROL) ([2]; 50.0 microM): 2.92 fold

CC(C)=CCNc1ncnc2nc[nH]c12 [Gamma, Gamma-Dimethylally-6-Aminopurine]
FOLD AMPK ACTIVATION (OVER CONTROL) ([2]; 0.5 microM): 2.82 fold | FOLD AMPK ACTIVATION (OVER CONTROL) ([2]; 5.0 microM): 2.45 fold | FOLD AMPK ACTIVATION (OVER CONTROL) ([2]; 50.0 microM): 2.11 fold | FOLD AKT ACTIVATION (OVER CONTROL) ([1]; 0.8 microM): 1.90 fold and 3.56 fold | FOLD AKT ACTIVATION (OVER CONTROL) ([1]; 2.0 microM): 1.32 fold

Nc1nc2c(ncn2[C@@H]2O[C@H](CO)[C@@H](O)[C@H]2O)c(=O)[nH]1 [Guanosine]
FOLD AMPK ACTIVATION (OVER CONTROL) ([2]; 5.0 microM): 3.70 fold | effect on AMPK activity (in words) ([2]; no concentration stated): potent activators of AMPK | effect on Akt activity (in words) ([1]; no concentration stated): potent activators of AMPK as well as Akt

OC[C@H]1O[C@@H](n2cnc3c(NCc4ccco4)ncnc32)[C@H](O)[C@@H]1O [Kinetin Riboside]
FOLD AMPK ACTIVATION (OVER CONTROL) ([2]; 3.0 microM): 12.00 fold | FOLD AKT ACTIVATION (OVER CONTROL) ([1]; 0.8 microM): 3.71 fold | FOLD AKT ACTIVATION (OVER CONTROL) ([1]; 2.0 microM): 5.14 fold | FOLD AKT ACTIVATION (OVER CONTROL) ([1]; 5.0 microM): 3.32 fold

CN(C)C(=N)N=C(N)N [Metformin, reference compound]
FOLD AMPK ACTIVATION (OVER CONTROL) ([2]; 2.0 milliM): 1.42 fold | FOLD AKT ACTIVATION (OVER CONTROL) ([1]; 2.0 milliM): 2.70 fold | FOLD CHANGE IN GLUT-4 LEVEL (OVER CONTROL) [3]: 1.50 fold
